Experimental data taken from paper PMC8401699, “Synthesis, DFT Calculations, Antiproliferative, Bactericidal Activity and Molecular Docking of Novel Mixed-Ligand Salen/8-Hydroxyquinoline Metal Complexes” (Molecules, 2021).
Like-named read-outs stand apart in the source and are kept apart here.

Columns and labels:
MDA-MB231 cells = test: MTT cytotoxicity assay, MDA-MB231; assay type: cell-based, human; settings: read-out: IC50 Values, MDA-MB231 Cell Line
Experimental: (§1) The cytotoxic activities of the synthesized ligands and metal complexes against the breast cancer cell line MDA-MB231, the hepatic cellular (Hep-G2), and normal cell line (HEK-293) were assessed by MTT assay. A cell suspension was diluted by complete medium to a concentration of 5 × 10^4 cell/mL. Using a micropipette, we pipetted 100 μL aliquots of the cell suspension into each well of 96-well plate (≈5000 cells/well). The 96-well plate was incubated at 37 °C for 24 h to allow cell attachment. After 24 h, cells were treated with 100 µL of growth medium containing […] of the newly synthesized compounds in triplicate. Cells were washed with phosphate-buffered saline (PBS), and fresh relevant medium containing 20 μL MTT in PBS (0.5 mg/mL) was added to the test wells. […] The MTT assay technique is based on the reduction of the tetrazolium salt MTT to insoluble purple formazan by metabolically active cells, making their activities quantifiable by spectrophotometry. […] Cell viability was determined by measuring the absorbance of each well at 570 nm (and at a reference wavelength of 630 nm) using an ELISA plate reader. […] IC50 values were calculated using Graph Pad Prism version 6.01, 2012 (GraphPad software, San Diego, CA, USA), by plotting the log concentration versus corresponding viability (%) to generate dose–response curves. […]

HEK-293 cells = test: MTT cytotoxicity assay, normal cell line HEK-293; assay type: cell-based
Experimental: A cell suspension was diluted by complete medium to a concentration of 5 × 10^4 cell/mL. Using a micropipette, we pipetted 100 μL aliquots of the cell suspension into each well of 96-well plate (≈5000 cells/well). The 96-well plate was incubated at 37 °C for 24 h to allow cell attachment. After 24 h, cells were treated with 100 µL of growth medium containing […] of the newly synthesized compounds in triplicate. Cells were washed with phosphate-buffered saline (PBS), and fresh relevant medium containing 20 μL MTT in PBS (0.5 mg/mL) was added to the test wells. The plate was further incubated in a CO2 incubator at 37 °C for 4 h, and then MTT assay analysis was performed. The MTT assay technique is based on the reduction of the tetrazolium salt MTT to insoluble purple formazan by metabolically active cells, making their activities quantifiable by spectrophotometry. Accordingly, the formed formazan crystals were dissolved in 120 μL DMSO for each well. Cell viability was determined by measuring the absorbance of each well at 570 nm (and at a reference wavelength of 630 nm) using an ELISA plate reader.

Hep-G2 cells = test: MTT cytotoxicity assay, Hep-G2; assay type: cell-based, human; settings: read-out: IC50 Values, Hep-G2 Cell Line
Experimental: as §1

What does the source list for `N.N.[Cl][Pt][Cl]` [Cisplatin, reference compound]?
IC50 (MDA-MB231 cells; MDA-MB231 breast carcinoma cells): 1.87 ± 0.09 µM; IC50 (HEK-293 cells; read-out: IC50 Values, HEK-293 Cell Lines): 94.1 ± 0.05 µM; IC50 (Hep-G2 cells; Hep-G2 liver carcinoma cells): 1.55 ± 0.06 µM

For `Oc1ccccc1C=NCCN=Cc1ccccc1O` [S, 2,2′-{1,2-ethanediylbis[nitrilo(E)methylylidene]}diphenol], which melting point is on record?
Its melting point is 127 °C.

What about the IC50 (MDA-MB231 cells; Homo sapiens, MDA-MB-231, MDA-MB231 breast carcinoma cells) of the same molecule?
Its IC50 is 27.54 ± 0.08 µM.

And the IC50 (HEK-293 cells; Homo sapiens, HEK293, read-out: IC50 Values, HEK-293 Cell Lines)?
Its IC50 is 93.06 ± 0.04 µM.

And the IC50 (Hep-G2 cells; Homo sapiens, HepG2, Hep-G2 liver carcinoma cells)?
The IC50 was 1.1 ± 0.1 µM.
